From patent US7718677B2, “Methods and compositions for reduction of side effects of therapeutic treatments” (priority 2007, dated 2010)
Like-named read-outs stand apart in the source and are kept apart here.

Assays:
[1] = test system: 6-hydroxydopamine-lesioned rats
Method: Animal model—6-Hydroxydopamine lesioning. We used the 6-hydroxydopamine lesioned rat model of nigrostriatal damage described by Cenci and colleagues (Cenci et al., 1998 Eur J Neurosci 10:2694-2706; Cenci et al., 2002 Nat Rev Neurosci 3:574-579). Adult male Sprague-Dawley rats were anesthetized with isofluorane, and then placed in a Kopf stereotaxic instrument. Burr holes were drilled through the skull and an intracranial injection of 6 μg 6-hydroxydopamine (2 μg/μl) stereotaxically injected at two separate sites into the right ascending dopamine fiber bundle, for a total of 12 μg 6-hydroxydopamine. The coordinates for the position of these two lesion sites were as follows relative to the Bregma and dural surface: (1) anteroposterior, −4.4; lateral, 1.2; ventral, 7.8; tooth bar at −2.4; (2) anteroposterior, −4.0; lateral, 0.75; ventral, 8.0; tooth bar at +3.4 (Cenci et al., 1998 Eur J Neurosci 10:2694-2706; Cenci et al., 2002 Nat Rev Neurosci 3:574-579). All procedures conformed to the NIH Guide for the Care and Use of Laboratory Animals and were approved by the Institutional Animal Care and Use Committee.
Nicotine treatment regimen. The rats were first given a drinking solution containing 1% saccharin for 3-4 days (FIG. 8). Nicotine was then added at a concentration of 25 μg/ml, and increased to 50 μg/ml 3-4 days later. Animals were maintained on this dose for 3 weeks. L-dopa treatment was then initiated, as below, with the nicotine dosing continued.
L-dopa treatment and behavioral testing for AIMs. Rats received single daily intraperitoneal injections of 8 mg/kg L-dopa methyl ester plus 15 mg/kg benserazide for 3 weeks (FIG. 8), as described (Cenci et al., 1998 Eur J Neurosci 10:2694-2706; Cenci et al., 2002 Nat Rev Neurosci 3:574-579). Abnormal involuntary movements (AIMs) after daily LDOPA injection were then quantified using the scale developed by Cenci and colleagues (Cenci et al., 1998 Eur J Neurosci 10:2694-2706; Cenci et al., 2002 Nat Rev Neurosci 3:574-579), as previously done in our laboratory (Cox et al., 2007, Exp. Neurol.). Rats were placed in a Rotomax test chamber. They were then scored on a scale from 0 to 4: 1=occasional; 2=frequent; 3=continuous but interrupted by sensory distraction; 4=continuous, severe, not interrupted by sensory distraction. The rating categories were as follows; (1) axial dystonia, consisting of twisting posturing of the head and neck; (2) orolingual dyskinesia, with stereotyped jaw movements and contralateral tongue protrusion and (3) forelimb movements, with dystonic movements of the contralateral forelimb. They were also assessed for locomotive dyskinesia, or increased locomotion with contralateral side bias; however, these scores were not included because the interpretation of this motor response is not clear (Papa et al., 1994 Brain Res 662; 69-74; Cenci et al., 1998 Eur J Neurosci 10:2694-2706).
Locomotive dyskinesias are distinct from turning behavior described above. […] The maximum possible score in each session was thus 108 (maximum score per observation=12; number of observations per session=9). Rats were evaluated by two raters, one blinded to treatment.
Data analyses. Statistical significance was determined using Student's t-tests or ANOVA followed by Bonferroni post hoc tests, as appropriate. Data are mean±SEM. A p level of 0.05 was considered significant.

CN1CCCC1c1cccnc1 (stereo not drawn) [Nicotine, S-3-(1-methyl-2-pyrrolidinyl)pyridine]
total AIMs ([1]; 25 μg/ml nicotine in the drinking water, two and four weeks after dose lowering, pooled): reduction in AIMs was sustained | total AIM scores ([1]; 50 μg/ml nicotine in drinking water, after 3 weeks of L-dopa 8 mg/kg ip, entire 3-hour period): reduction | oral dyskinesias ([1]; 3 and 6-8 week time points): trend for a decrease | forelimb dyskinesias ([1]; 3 and 6-8 week time points, both doses of nicotine (50 and 25 μg/ml)): significant decreases | axial dyskinesias ([1]; 6-8 week time point): significant decreases | persistence of the decline in AIMs with L-dopa treatment ([1]; 25 and 50 μg/ml in the drinking water): at least 2 months | body weight (minipump 2 mg/kg/d nicotine vs vehicle): similar | fluid intake (nicotine in saccharin drinking solution vs vehicle-treated): drank less | body weight (nicotine via drinking water, continued dosing, rats appeared healthy): small difference
